Columns and labels:
[1] = system: HT-29; assay: Effect on apoptotic NAIP gene expression in human HT29 cells after 6 hrs; assay type: functional
[2] = system: HT-29; assay: Effect on proapoptotic FAS gene expression in human HT29 cells after 6 hrs; assay type: functional
[3] = system: HT-29; assay: Effect on proapoptotic CASP8 gene expression in human HT29 cells after 6 hrs; assay type: functional
[4] = system: HT-29; assay: Effect on proapoptotic CD27 gene expression in human HT29 cells after 12 hrs; assay type: functional
[5] = system: HT-29; assay: Effect on proapoptotic TRADD gene expression in human HT29 cells after 12 hrs; assay type: functional
[6] = system: HT-29; assay: Effect on apoptotic BRAF gene expression in human HT29 cells after 6 hrs; assay type: functional
[7] = system: HT-29; assay: Effect on proapoptotic CASP7 gene expression in human HT29 cells after 12 hrs; assay type: functional
[8] = system: HT-29; assay: Effect on apoptotic GADD45A gene expression in human HT29 cells after 6 hrs; assay type: functional
[9] = system: HT-29; assay: Effect on apoptotic NAIP gene expression in human HT29 cells after 12 hrs; assay type: functional
[10] = system: HT-29; assay: Effect on proapoptotic BNIP1 gene expression in human HT29 cells after 6 hrs; assay type: functional
[11] = system: HT-29; assay: Effect on proapoptotic CD70 gene expression in human HT29 cells after 12 hrs; assay type: functional
[12] = system: HT-29; assay: Effect on apoptosis in human HT29 PI+/AnnV- cells after 24 hrs by biparametric flow cytometric analysis; assay type: functional; conditions: HT-29, 24 h, read-out: LC50 (the source's name)
[13] = system: HT-29; assay: Effect on proapoptotic TRAF4 gene expression in human HT29 cells after 12 hrs; assay type: functional
[14] = system: HT-29; assay: Cytotoxicity against human HT29 cells after 72 hrs; assay type: functional; conditions: HT-29, 72 h
[15] = system: HT-29; assay: Effect on apoptotic BIRC4 gene expression in human HT29 cells after 12 hrs; assay type: functional
[16] = system: HT-29; assay: Effect on proapoptotic BCL2L11 gene expression in human HT29 cells after 6 hrs; assay type: functional
[17] = system: HT-29; assay: Effect on apoptotic CFLAR gene expression in human HT29 cells after 6 hrs; assay type: functional
[18] = system: HT-29; assay: Effect on apoptosis in human HT29 PI-/AnnV+ cells after 12 hrs by biparametric flow cytometric analysis; assay type: functional; conditions: HT-29, 12 h, read-out: LC50 (the source's name)
[19] = system: HT-29; assay: Effect on proapoptotic BCLAF1 gene expression in human HT29 cells after 12 hrs; assay type: functional
[20] = system: HT-29; assay: Effect on apoptosis in human HT29 PI-/AnnV+ cells after 24 hrs by biparametric flow cytometric analysis; assay type: functional; conditions: HT-29, 24 h, read-out: LC50 (the source's name)
[21] = Ratio of Kapp for synthetic poly(dA-dT)]2 oligonucleotide to Kapp for synthetic poly(dG-dC)]2 oligonucleotide
[22] = system: HT-29; assay: Effect on proapoptotic CD27 gene expression in human HT29 cells after 6 hrs; assay type: functional
[23] = system: HT-29; assay: Effect on apoptosis in human HT29 PI+/AnnV- cells after 6 hrs by biparametric flow cytometric analysis; assay type: functional; conditions: HT-29, 6 h, read-out: LC50 (the source's name)
[24] = system: HT-29; assay: Effect on proapoptotic TRAF4 gene expression in human HT29 cells after 6 hrs; assay type: functional
[25] = system: HT-29; assay: Effect on proapoptotic BFAR gene expression in human HT29 cells after 12 hrs; assay type: functional
[26] = system: HT-29; assay: Effect on apoptosis in human HT29 PI+/AnnV+ cells after 24 hrs by biparametric flow cytometric analysis; assay type: functional; conditions: HT-29, 24 h, read-out: LC50 (the source's name)
[27] = system: HT-29; assay: Effect on proapoptotic BAX gene expression in human HT29 cells after 12 hrs; assay type: functional
[28] = system: HT-29; assay: Effect on proapoptotic CARD8 gene expression in human HT29 cells after 6 hrs; assay type: functional
[29] = system: HT-29; assay: Effect on proapoptotic TRAF3 gene expression in human HT29 cells after 6 hrs; assay type: functional
[30] = system: HT-29; assay: Effect on proapoptotic BIK gene expression in human HT29 cells after 6 hrs; assay type: functional
[31] = system: HT-29; assay: Effect on proapoptotic TRAF2 gene expression in human HT29 cells after 6 hrs; assay type: functional
[32] = system: HT-29; assay: Effect on apoptotic BIRC8 gene expression in human HT29 cells after 6 hrs; assay type: functional
[33] = system: HT-29; assay: Effect on apoptotic BNIP2 gene expression in human HT29 cells after 6 hrs; assay type: functional
[34] = system: HT-29; assay: Effect on proapoptotic BNIP3L gene expression in human HT29 cells after 12 hrs; assay type: functional
[35] = system: HT-29; assay: Effect on proapoptotic CIDEB gene expression in human HT29 cells after 6 hrs; assay type: functional
[36] = system: HT-29; assay: Effect on apoptotic ABL1 gene expression in human HT29 cells after 6 hrs; assay type: functional
[37] = system: HT-29; assay: Effect on proapoptotic BCL2 gene expression in human HT29 cells after 12 hrs; assay type: functional
[38] = system: HT-29; assay: Effect on proapoptotic NOD1 gene expression in human HT29 cells after 6 hrs; assay type: functional
[39] = system: HT-29; assay: Effect on apoptosis in human HT29 PI-/AnnV- cells after 6 hrs by biparametric flow cytometric analysis; assay type: functional; conditions: HT-29, 6 h, read-out: LC50 (the source's name)
[40] = system: HT-29; assay: Effect on apoptosis in human HT29 PI-/AnnV+ cells after 6 hrs by biparametric flow cytometric analysis; assay type: functional; conditions: HT-29, 6 h, read-out: LC50 (the source's name)
[41] = system: HT-29; assay: Effect on proapoptotic TNFRSF11B gene expression in human HT29 cells after 6 hrs; assay type: functional
[42] = system: HT-29; assay: Effect on proapoptotic TP53 gene expression in human HT29 cells after 6 hrs; assay type: functional
[43] = system: HT-29; assay: Effect on apoptotic NOL3 gene expression in human HT29 cells after 6 hrs; assay type: functional
[44] = system: HT-29; assay: Effect on apoptotic NOL3 gene expression in human HT29 cells after 12 hrs; assay type: functional
[45] = system: HT-29; assay: Effect on proapoptotic CASP7 gene expression in human HT29 cells after 6 hrs; assay type: functional
[46] = system: HT-29; assay: Effect on proapoptotic BID gene expression in human HT29 cells after 6 hrs; assay type: functional
[47] = system: HT-29; assay: Effect on proapoptotic BAK1 gene expression in human HT29 cells after 12 hrs; assay type: functional
[48] = system: HT-29; assay: Effect on proapoptotic BAK1 gene expression in human HT29 cells after 6 hrs; assay type: functional
[49] = system: HT-29; assay: Effect on apoptosis in human HT29 PI+/AnnV+ cells after 6 hrs by biparametric flow cytometric analysis; assay type: functional; conditions: HT-29, 6 h, read-out: LC50 (the source's name)
[50] = system: HT-29; assay: Effect on apoptotic BCL2L10 gene expression in human HT29 cells after 12 hrs; assay type: functional
[51] = system: HT-29; assay: Effect on apoptotic BNIP2 gene expression in human HT29 cells after 12 hrs; assay type: functional
[52] = system: HT-29; assay: Effect on proapoptotic BCL2 gene expression in human HT29 cells after 6 hrs; assay type: functional
[53] = system: HT-29; assay: Effect on apoptosis in human HT29 PI+/AnnV+ cells after 12 hrs by biparametric flow cytometric analysis; assay type: functional; conditions: HT-29, 12 h, read-out: LC50 (the source's name)
[54] = system: HT-29; assay: Effect on proapoptotic BAX gene expression in human HT29 cells after 6 hrs; assay type: functional
[55] = system: HT-29; assay: Effect on proapoptotic CD70 gene expression in human HT29 cells after 6 hrs; assay type: functional
[56] = system: HT-29; assay: Effect on proapoptotic CARD6 gene expression in human HT29 cells after 6 hrs; assay type: functional
[57] = system: HT-29; assay: Effect on proapoptotic TRADD gene expression in human HT29 cells after 6 hrs; assay type: functional
[58] = system: HT-29; assay: Effect on apoptotic ABL1 gene expression in human HT29 cells after 12 hrs; assay type: functional
[59] = system: HT-29; assay: Effect on proapoptotic CASP9 gene expression in human HT29 cells after 6 hrs; assay type: functional
[60] = system: HT-29; assay: Effect on proapoptotic FADD gene expression in human HT29 cells after 6 hrs; assay type: functional
[61] = system: HT-29; assay: Effect on proapoptotic CASP6 gene expression in human HT29 cells after 6 hrs; assay type: functional
[62] = system: HT-29; assay: Effect on apoptotic BIRC4 gene expression in human HT29 cells after 6 hrs; assay type: functional
[63] = system: HT-29; assay: Effect on proapoptotic BNIP3L gene expression in human HT29 cells after 6 hrs; assay type: functional
[64] = system: HT-29; assay: Effect on apoptotic MCL1 gene expression in human HT29 cells after 6 hrs; assay type: functional
[65] = system: HT-29; assay: Effect on proapoptotic CIDEB gene expression in human HT29 cells after 12 hrs; assay type: functional
[66] = system: HT-29; assay: Effect on apoptosis in human HT29 PI+/AnnV- cells after 12 hrs by biparametric flow cytometric analysis; assay type: functional; conditions: HT-29, 12 h, read-out: LC50 (the source's name)
[67] = system: HT-29; assay: Effect on proapoptotic TNFRSF21 gene expression in human HT29 cells after 6 hrs; assay type: functional
[68] = system: HT-29; assay: Effect on proapoptotic BFAR gene expression in human HT29 cells after 6 hrs; assay type: functional
[69] = system: HT-29; assay: Effect on apoptosis in human HT29 PI-/AnnV- cells after 12 hrs by biparametric flow cytometric analysis; assay type: functional; conditions: HT-29, 12 h, read-out: LC50 (the source's name)
[70] = system: HT-29; assay: Effect on proapoptotic CASP9 gene expression in human HT29 cells after 12 hrs; assay type: functional
[71] = system: HT-29; assay: Effect on apoptotic BIRC3 gene expression in human HT29 cells after 6 hrs; assay type: functional
[72] = system: HT-29; assay: Effect on apoptosis in human HT29 PI-/AnnV- cells after 24 hrs by biparametric flow cytometric analysis; assay type: functional; conditions: HT-29, 24 h, read-out: LC50 (the source's name)
[73] = system: HT-29; assay: Effect on apoptotic BCL2L10 gene expression in human HT29 cells after 6 hrs; assay type: functional
[74] = system: HT-29; assay: Effect on apoptotic BCL2L1 gene expression in human HT29 cells after 12 hrs; assay type: functional

CN(C)CCNc1ccc(NCCCN(C)CCCNc2ccc(NCCN(C)C)c3c2C(=O)c2cnccc2C3=O)c2c1C(=O)c1ccncc1C2=O
Fold change [1]: 9.6 | Fold change [2]: 2.2 | Fold change [3]: 2.5 | Fold change [4]: 2.2 | Fold change [5]: 2.5 | Fold change [6]: 2.4 | Fold change [7]: 3 | Fold change [8]: 3 | Fold change [9]: 52 | Fold change [10]: 3 | Fold change [11]: 2.2 | CC50 [12]: 8.3 µM | Fold change [13]: 23 | GI50 [14]: 300 nM | LC50 (concentration killing 50% of cells) [14]: 62 µM | TGI [14]: 5.1 µM | Fold change [15]: 2 | Fold change [16]: 7.7 | Fold change [17]: 4 | CC50 [18]: 10.3 µM | Fold change [19]: 136 | CC50 [20]: 36.3 µM | Ratio [21]: 2.5 | Fold change [22]: 2.2 | CC50 [23]: 3.3 µM | Fold change [24]: 94 | Fold change [25]: -2.5 | CC50 [26]: 18.3 µM | Fold change [27]: 3 | Fold change [28]: 4 | Fold change [29]: 4.5 | Fold change [30]: 5.2 | Fold change [31]: 2.4 | Fold change [32]: -2.3 | Fold change [33]: -2.9 | Fold change [34]: 3.6 | Fold change [35]: 9.3 | Fold change [36]: 33 | Fold change [37]: -5.9 | Fold change [38]: 4.2 | CC50 [39]: 88.5 µM | CC50 [40]: 7.4 µM | Fold change [41]: 2.1 | Fold change [42]: 3 | Fold change [43]: 4.7 | Fold change [44]: 15 | Fold change [45]: 6.4 | Fold change [46]: 4.3 | Fold change [47]: 4.1 | Fold change [48]: 4.5 | CC50 [49]: 800 nM | Fold change [50]: 7.8 | Fold change [51]: -3.3 | Fold change [52]: 4.2 | CC50 [53]: 1.2 µM | Fold change [54]: 5.3 | Fold change [55]: 2.2 | Fold change [56]: -5 | Fold change [57]: 4.3 | Fold change [58]: 58 | Fold change [59]: 3 | Fold change [60]: 2.4 | Fold change [61]: 3 | Fold change [62]: 9.3 | Fold change [63]: 7.4 | Fold change [64]: -10 | Fold change [65]: 4.4 | CC50 [66]: 5.3 µM | Fold change [67]: 3.7 | Fold change [68]: 5.4 | CC50 [69]: 83.2 µM | Fold change [70]: 8.5 | Fold change [71]: 2.5 | CC50 [72]: 37.1 µM | Fold change [73]: 3.1 | Fold change [74]: -5.9

NCCNc1ccc(NCCN)c2c1C(=O)c1ccncc1C2=O [PIXANTRONE]
CC50 [12]: 11.2 µM | GI50 [14]: 1.2 nM | TGI [14]: 3.2 µM | CC50 [18]: 38.4 µM | CC50 [20]: 41 µM | CC50 [23]: 4.8 µM | CC50 [26]: 6.2 µM | CC50 [39]: 60.4 µM | CC50 [40]: 32.5 µM | CC50 [49]: 2300 nM | CC50 [53]: 6.1 µM | CC50 [66]: 5.1 µM | CC50 [69]: 50.4 µM | CC50 [72]: 41.6 µM

From ChEMBL document CHEMBL1141566, “Synthesis and antitumor evaluation of bis aza-anthracene-9,10-diones and bis aza-anthrapyrazole-6-ones” (2008)
